Assay results published in ChEMBL document CHEMBL1155384 (Bioorg Med Chem Lett, 2010).

Assays:
[1] = Antiproliferative activity against human RS4:11 cells having FLT3-ITD mutation after 72 hrs by WST8 assay; format: functional, cell-based; details: RS4-11, 72 h
[2] = biological target: T1, Receptor-type tyrosine-protein kinase FLT3 (Homo sapiens, UniProt P36888); assay: Inhibition of FLT3 by HTRF assay
T1 sequence (P36888 whole entry): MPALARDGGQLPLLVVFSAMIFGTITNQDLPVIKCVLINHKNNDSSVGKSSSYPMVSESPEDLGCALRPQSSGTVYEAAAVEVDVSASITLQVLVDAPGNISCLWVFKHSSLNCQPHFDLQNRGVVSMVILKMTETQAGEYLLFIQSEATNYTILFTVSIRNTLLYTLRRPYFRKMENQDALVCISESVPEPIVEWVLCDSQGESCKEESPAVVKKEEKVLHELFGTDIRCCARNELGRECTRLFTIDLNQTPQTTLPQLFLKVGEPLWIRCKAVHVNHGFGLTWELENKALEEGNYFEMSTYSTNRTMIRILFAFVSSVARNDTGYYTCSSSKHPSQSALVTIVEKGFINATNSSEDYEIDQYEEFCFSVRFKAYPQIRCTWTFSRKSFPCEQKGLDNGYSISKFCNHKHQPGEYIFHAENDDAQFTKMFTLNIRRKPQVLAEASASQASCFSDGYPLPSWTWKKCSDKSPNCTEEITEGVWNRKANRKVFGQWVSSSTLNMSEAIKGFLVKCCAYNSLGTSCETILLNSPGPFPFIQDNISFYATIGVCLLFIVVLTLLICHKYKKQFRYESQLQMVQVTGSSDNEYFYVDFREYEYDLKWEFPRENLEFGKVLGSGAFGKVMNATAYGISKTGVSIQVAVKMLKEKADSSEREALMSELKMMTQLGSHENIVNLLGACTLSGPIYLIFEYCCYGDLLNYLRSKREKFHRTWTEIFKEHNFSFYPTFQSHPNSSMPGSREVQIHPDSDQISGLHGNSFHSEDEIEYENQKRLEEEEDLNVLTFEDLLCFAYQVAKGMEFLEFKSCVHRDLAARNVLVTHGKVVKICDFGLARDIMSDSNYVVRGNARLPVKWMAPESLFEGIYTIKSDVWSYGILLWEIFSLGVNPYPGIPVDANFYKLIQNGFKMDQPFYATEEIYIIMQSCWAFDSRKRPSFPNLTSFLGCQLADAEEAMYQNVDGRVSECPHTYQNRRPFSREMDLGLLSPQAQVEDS

MV4-11 [3] = assay: Antiproliferative activity against […] FLT3 expressing human MV411 cells after 72 hrs by WST8 assay; format: functional, cell-based; details: MV4-11, 72 h
[4] = biological target: Vascular endothelial growth factor receptor 2 (Homo sapiens, UniProt P35968); assay: Inhibition of VEGFR2 by HTRF assay
[5] = biological target: Hepatocyte growth factor receptor (Homo sapiens, UniProt P08581); assay: Inhibition of Met by HTRF assay
[6] = biological target: Macrophage-stimulating protein receptor (Homo sapiens, UniProt Q04912); assay: Inhibition of Ron by HTRF assay
[7] = biological target: Epidermal growth factor receptor (Homo sapiens, UniProt P00533); assay: Inhibition of EGFR by HTRF assay
Insulin receptor = Insulin receptor (Homo sapiens, UniProt P06213); assay: Inhibition of insulin receptor by HTRF assay
Aurora kinase A = biological target: T2, Aurora kinase A (Homo sapiens, UniProt O14965); assay: Inhibition of Aurora A by HTRF assay
T2 sequence (O14965 whole entry): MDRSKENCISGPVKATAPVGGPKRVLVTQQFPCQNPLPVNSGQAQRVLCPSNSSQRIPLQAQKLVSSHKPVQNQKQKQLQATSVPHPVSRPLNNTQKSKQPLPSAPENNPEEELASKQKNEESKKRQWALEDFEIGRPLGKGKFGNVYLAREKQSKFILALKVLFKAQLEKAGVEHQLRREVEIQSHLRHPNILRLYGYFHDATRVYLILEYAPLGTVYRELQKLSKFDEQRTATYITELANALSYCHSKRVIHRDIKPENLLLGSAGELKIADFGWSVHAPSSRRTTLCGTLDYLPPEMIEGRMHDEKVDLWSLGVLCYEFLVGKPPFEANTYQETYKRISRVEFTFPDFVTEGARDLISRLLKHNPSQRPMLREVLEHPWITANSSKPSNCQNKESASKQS

MV4-11 [8] = assay: Cell cycle arrest in human MV411 cells assessed as accumulation at G0/G1 phase at 0.01 uM after 48 hrs by propidium iodide assay; format: functional
MV4-11 [9] = assay: Cell cycle arrest in human MV411 cells assessed as accumulation at G2/M phase at 0.01 uM after 48 hrs by propidium iodide assay; format: functional
MV4-11 [10] = assay: Cell cycle arrest in human MV411 cells assessed as accumulation at S phase at 0.01 uM after 48 hrs by propidium iodide assay; format: functional
MV4-11 [11] = assay: Cell cycle arrest in human MV411 cells assessed as accumulation at sub-G1 phase at 0.01 uM after 48 hrs by propidium iodide assay; format: functional
MV4-11 [12] = assay: Cell cycle arrest in human MV411 cells assessed as accumulation at G0/G1 phase at 1 uM after 48 hrs by propidium iodide assay; format: functional
MV4-11 [13] = assay: Cell cycle arrest in human MV411 cells assessed as accumulation at G0/G1 phase at 0.1 uM after 48 hrs by propidium iodide assay; format: functional
MV4-11 [14] = assay: Cell cycle arrest in human MV411 cells assessed as accumulation at G2/M phase at 0.1 uM after 48 hrs by propidium iodide assay; format: functional
MV4-11 [15] = assay: Cell cycle arrest in human MV411 cells assessed as accumulation at S phase at 0.1 uM after 48 hrs by propidium iodide assay; format: functional
MV4-11 [16] = assay: Cell cycle arrest in human MV411 cells assessed as accumulation at sub-G1 phase at 0.1 uM after 48 hrs by propidium iodide assay; format: functional
MV4-11 [17] = assay: Cell cycle arrest in human MV411 cells assessed as accumulation at G2/M phase at 1 uM after 48 hrs by propidium iodide assay; format: functional
MV4-11 [18] = assay: Cell cycle arrest in human MV411 cells assessed as accumulation at S phase at 1 uM after 48 hrs by propidium iodide assay; format: functional
MV4-11 [19] = assay: Cell cycle arrest in human MV411 cells assessed as accumulation at sub-G1 phase at 1 uM after 48 hrs by propidium iodide assay; format: functional

Vascular endothelial growth factor receptor 2, sequence (P35968 whole entry): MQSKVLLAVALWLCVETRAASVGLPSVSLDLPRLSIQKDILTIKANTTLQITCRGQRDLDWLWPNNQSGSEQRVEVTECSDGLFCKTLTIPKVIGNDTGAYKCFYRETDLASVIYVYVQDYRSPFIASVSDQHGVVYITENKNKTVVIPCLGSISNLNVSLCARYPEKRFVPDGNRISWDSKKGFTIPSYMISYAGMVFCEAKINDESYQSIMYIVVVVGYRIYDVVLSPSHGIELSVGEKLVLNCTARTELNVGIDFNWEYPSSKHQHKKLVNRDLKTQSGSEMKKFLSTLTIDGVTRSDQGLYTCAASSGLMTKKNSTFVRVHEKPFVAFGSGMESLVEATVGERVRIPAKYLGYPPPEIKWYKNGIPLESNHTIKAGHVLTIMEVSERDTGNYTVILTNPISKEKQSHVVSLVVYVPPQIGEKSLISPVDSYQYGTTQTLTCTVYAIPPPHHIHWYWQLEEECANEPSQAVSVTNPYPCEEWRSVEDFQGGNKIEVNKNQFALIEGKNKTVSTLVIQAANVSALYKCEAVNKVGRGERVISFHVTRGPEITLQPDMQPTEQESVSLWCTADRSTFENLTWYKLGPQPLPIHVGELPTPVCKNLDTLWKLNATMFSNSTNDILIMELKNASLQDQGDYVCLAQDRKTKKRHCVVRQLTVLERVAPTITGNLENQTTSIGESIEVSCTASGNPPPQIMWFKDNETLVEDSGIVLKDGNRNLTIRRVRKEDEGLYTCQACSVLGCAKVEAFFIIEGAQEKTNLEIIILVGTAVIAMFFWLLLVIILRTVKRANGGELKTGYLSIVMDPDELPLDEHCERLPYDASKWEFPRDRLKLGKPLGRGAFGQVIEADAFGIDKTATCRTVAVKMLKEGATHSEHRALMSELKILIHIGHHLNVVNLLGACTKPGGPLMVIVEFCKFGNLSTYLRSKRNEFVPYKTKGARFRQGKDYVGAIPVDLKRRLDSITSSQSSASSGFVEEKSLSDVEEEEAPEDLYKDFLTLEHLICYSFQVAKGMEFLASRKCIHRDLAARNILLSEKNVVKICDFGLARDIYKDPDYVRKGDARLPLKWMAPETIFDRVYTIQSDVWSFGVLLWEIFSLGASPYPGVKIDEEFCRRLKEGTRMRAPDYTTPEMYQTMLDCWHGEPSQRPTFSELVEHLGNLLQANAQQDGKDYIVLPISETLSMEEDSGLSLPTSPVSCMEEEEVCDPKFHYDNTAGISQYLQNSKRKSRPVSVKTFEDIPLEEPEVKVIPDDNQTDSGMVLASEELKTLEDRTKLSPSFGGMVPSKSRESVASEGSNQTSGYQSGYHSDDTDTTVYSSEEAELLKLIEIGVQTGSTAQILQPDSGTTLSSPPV
Macrophage-stimulating protein receptor, sequence (Q04912 25-304 limits assumed): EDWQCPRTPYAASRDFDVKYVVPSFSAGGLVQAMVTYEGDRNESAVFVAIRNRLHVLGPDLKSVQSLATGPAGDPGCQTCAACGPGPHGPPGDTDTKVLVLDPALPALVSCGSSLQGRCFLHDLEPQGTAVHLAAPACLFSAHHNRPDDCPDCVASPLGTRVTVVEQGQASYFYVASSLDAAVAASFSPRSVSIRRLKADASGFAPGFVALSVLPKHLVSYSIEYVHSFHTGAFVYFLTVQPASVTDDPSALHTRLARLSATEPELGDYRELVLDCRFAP
Macrophage-stimulating protein receptor, sequence (Q04912 310-1400 limits assumed): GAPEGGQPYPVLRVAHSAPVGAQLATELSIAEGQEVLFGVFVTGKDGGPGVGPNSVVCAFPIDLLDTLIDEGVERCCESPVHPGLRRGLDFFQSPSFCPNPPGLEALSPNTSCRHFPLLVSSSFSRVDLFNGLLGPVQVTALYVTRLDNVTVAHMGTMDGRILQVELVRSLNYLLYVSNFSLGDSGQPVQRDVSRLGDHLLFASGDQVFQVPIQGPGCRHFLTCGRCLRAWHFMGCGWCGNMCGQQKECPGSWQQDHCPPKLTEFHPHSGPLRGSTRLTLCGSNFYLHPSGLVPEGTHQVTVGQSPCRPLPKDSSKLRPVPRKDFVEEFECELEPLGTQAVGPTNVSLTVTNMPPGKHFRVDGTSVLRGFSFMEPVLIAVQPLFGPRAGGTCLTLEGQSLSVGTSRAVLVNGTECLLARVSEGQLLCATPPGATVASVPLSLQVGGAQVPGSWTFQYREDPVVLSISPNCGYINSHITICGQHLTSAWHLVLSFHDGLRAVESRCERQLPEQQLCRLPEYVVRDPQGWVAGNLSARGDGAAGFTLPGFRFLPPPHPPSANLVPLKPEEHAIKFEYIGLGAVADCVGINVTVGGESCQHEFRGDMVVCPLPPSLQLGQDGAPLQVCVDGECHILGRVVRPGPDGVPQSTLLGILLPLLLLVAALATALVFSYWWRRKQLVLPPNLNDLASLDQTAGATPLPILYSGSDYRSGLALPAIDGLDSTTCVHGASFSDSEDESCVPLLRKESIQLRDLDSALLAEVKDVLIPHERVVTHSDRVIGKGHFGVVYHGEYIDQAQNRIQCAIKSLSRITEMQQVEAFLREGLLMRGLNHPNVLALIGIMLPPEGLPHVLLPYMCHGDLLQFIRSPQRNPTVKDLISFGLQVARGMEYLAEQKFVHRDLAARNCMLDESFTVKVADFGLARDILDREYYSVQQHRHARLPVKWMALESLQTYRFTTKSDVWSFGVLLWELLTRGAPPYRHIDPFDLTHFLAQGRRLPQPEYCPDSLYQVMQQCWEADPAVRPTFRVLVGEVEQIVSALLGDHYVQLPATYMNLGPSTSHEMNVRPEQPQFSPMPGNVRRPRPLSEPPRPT
Epidermal growth factor receptor, sequence (P00533 whole entry): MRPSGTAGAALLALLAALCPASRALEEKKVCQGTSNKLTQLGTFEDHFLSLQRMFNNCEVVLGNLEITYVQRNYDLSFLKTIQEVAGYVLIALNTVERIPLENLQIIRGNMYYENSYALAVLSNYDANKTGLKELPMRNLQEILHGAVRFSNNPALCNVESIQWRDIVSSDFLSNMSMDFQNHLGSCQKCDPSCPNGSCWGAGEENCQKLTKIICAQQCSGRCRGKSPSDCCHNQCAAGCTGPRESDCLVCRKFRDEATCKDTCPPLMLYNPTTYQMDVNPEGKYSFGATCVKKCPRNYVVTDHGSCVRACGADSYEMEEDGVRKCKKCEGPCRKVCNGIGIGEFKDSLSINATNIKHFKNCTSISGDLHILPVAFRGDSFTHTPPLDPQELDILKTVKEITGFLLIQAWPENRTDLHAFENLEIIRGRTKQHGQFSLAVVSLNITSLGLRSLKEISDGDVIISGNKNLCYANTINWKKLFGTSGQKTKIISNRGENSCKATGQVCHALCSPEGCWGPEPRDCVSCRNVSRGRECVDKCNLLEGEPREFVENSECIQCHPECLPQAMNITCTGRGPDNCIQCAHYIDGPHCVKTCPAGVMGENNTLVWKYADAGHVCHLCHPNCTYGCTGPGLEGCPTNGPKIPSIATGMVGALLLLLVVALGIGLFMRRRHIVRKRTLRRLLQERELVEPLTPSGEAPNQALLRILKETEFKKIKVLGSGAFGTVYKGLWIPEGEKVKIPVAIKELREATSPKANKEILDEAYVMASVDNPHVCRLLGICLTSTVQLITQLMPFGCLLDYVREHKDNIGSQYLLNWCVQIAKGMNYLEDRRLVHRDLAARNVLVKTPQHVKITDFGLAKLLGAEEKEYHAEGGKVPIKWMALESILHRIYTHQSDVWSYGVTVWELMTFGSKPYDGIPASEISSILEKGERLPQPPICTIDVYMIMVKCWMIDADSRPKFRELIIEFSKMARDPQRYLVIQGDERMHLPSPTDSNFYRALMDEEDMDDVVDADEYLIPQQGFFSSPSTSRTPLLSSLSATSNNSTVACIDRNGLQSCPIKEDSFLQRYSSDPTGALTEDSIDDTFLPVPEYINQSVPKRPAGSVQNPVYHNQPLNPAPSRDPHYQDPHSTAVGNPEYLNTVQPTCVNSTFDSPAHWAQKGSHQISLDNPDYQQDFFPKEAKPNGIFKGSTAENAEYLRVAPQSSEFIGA

SMILES	IC50 [1] [nM]	IC50 [2] [nM]	IC50 (MV4-11 [3]) [nM]	further results
O=Nc1c(-c2c(O)[nH]c3ccccc23)[nH]c2ccccc12 [INDIRUBIN-3-MONOXIME]	3560	33	150	
O=C1C(c2c(O)[nH]c3ccc([N+](=O)[O-])cc23)=Nc2ccccc21	> 10000	> 10000	> 10000	
O=C1C(c2c(O)[nH]c3ccc(S(=O)(=O)O)cc23)=Nc2ccccc21	> 10000	280	> 10000	
O=C1Nc2ccccc2/C1=C1/Nc2ccccc2C1=O [INDIRUBIN]	> 10000	> 10000	> 10000	
O=C1C(c2c(O)[nH]c3ccc(F)cc23)=Nc2ccccc21	> 10000	10100	> 10000	
Cc1cc(C)c2c(c1)/C(=C1/Nc3ccccc3/C1=N\O)C(=O)N2	> 10000	952	2400	
O=C1Nc2ccc(OC(F)(F)F)cc2/C1=C1/Nc2ccccc2/C1=N\O	3360	> 10000	> 3550	
O=C1Nc2ccc(Cl)cc2/C1=C1/Nc2ccccc2/C1=N\O	1580	82	220	
O=C1Nc2ccc(F)cc2/C1=C1/Nc2ccccc2/C1=N\O	2210	15	72	IC50 [4]: 1530 nM; IC50 [5]: > 10000 nM; IC50 [6]: > 10000 nM; IC50 [7]: > 10000 nM; IC50 (Insulin receptor): > 10000 nM; IC50 (Aurora kinase A): 1270 nM; Activity (MV4-11 [8]): 61.62%; Activity (MV4-11 [9]): 11.53%; Activity (MV4-11 [10]): 16.55%; Activity (MV4-11 [11]): 9.24%; Activity (MV4-11 [12]): 58.06%; Activity (MV4-11 [13]): 57.44%; Activity (MV4-11 [14]): 2.91%; Activity (MV4-11 [15]): 6.42%; Activity (MV4-11 [16]): 32.76%; Activity (MV4-11 [17]): 1.05%; Activity (MV4-11 [18]): 2.85%; Activity (MV4-11 [19]): 37.73%
Cc1cc(Cl)cc2c1NC(=O)/C2=C1\Nc2ccccc2\C1=N/O	> 10000	> 10000	> 10000	
Nc1ccc2c(c1)/C(=C1/Nc3ccccc3C1=O)C(=O)N2	4670	359	4300	
O=C1Nc2ccc([N+](=O)[O-])cc2/C1=C1/Nc2ccc(Br)cc2/C1=N/O	160	> 10000	> 270	
Nc1ccn([C@@H]2O[C@H](CO)[C@@H](O)[C@@H]2O)c(=O)n1 [CYTARABINE]	260		3360	
Cc1ccc2[nH]c(O)c(C3=Nc4ccccc4C3=O)c2c1	> 10000	209	1540	
O=Nc1c(-c2c(O)[nH]c3ccc(I)cc23)[nH]c2ccccc12	1450	418	360	
C[C@]12O[C@H](C[C@]1(O)CO)n1c3ccccc3c3c4c(c5c6ccccc6n2c5c31)CNC4=O [LESTAURTINIB]	120		9	
CC(=O)N1/C(=C2\C(=O)Nc3ccccc32)C(=O)c2ccccc21	> 10000	> 10000	> 10000	
O=Nc1c(-c2c(O)[nH]c3ccc([N+](=O)[O-])cc23)[nH]c2ccccc12	560	62	450	
Cc1ccc2c(c1)/C(=C1/Nc3ccccc3/C1=N\O)C(=O)N2	8560	28	260	
O=C1C(c2c(O)[nH]c3ccc(I)cc23)=Nc2ccccc21	> 10000	4720	4790	
O=C1Nc2ccc(S(=O)(=O)O)cc2/C1=C1/Nc2ccccc2/C1=N\O	> 10000	9	> 10000	
O=C1C(c2c(O)[nH]c3ccc(Cl)cc23)=Nc2ccccc21	> 10000	212	7000	
Nc1ccc2c(c1)/C(=C1/Nc3ccccc3/C1=N\O)C(=O)N2	3340	128	1650	
